From ChEMBL document CHEMBL5352406 (Eur J Med Chem, 2022)

Legend:
Type in all cases: functional
[1] = system: HCT-116; assay: Cell cycle arrest in human HCT-116 cells assessed as accumulation of cells at S phase at 10 nM measured after 48 hrs by flow cytometry (reference value: 31.43%)
[2] = system: HCT-116; assay: Induction of apoptosis in human HCT-116 cells assessed as viable cells at 10 nM measured after 48 hrs by Annexin V-FITC/PI assay (reference value: 88.5%); details: read-out: Activity
[3] = system: A549; assay: Antiproliferative activity against human A549 cells assessed as cell growth inhibition after 72 hrs by MTT assay
[4] = system: SW480; assay: Antiproliferative activity against human SW480 cells assessed as cell growth inhibition after 72 hrs by MTT assay
[5] = system: HCT-116; assay: Cell cycle arrest in human HCT-116 cells assessed as accumulation of cells at […] phase at 10 nM measured after 48 hrs by flow cytometry (reference value: 6.39%)
[6] = system: MCF7; assay: Antiproliferative activity against human MCF7 cells assessed as cell growth inhibition after 72 hrs by MTT assay
[7] = system: HCT-116; assay: Induction of apoptosis in human HCT-116 cells assessed as late apoptotic cells at 10 nM measured after 48 hrs by Annexin V-FITC/PI assay (reference value: 6.06%)
[8] = system: HCT-116; assay: Induction of apoptosis in human HCT-116 cells assessed as early apoptotic cells at 10 nM measured after 48 hrs by Annexin V-FITC/PI assay (reference value: 3.16%)
[9] = system: HCT-116; assay: Antiproliferative activity against human HCT-116 cells assessed as cell growth inhibition after 72 hrs by MTT assay
[10] = system: HCT-116; assay: Induction of apoptosis in human HCT-116 cells assessed as necrotic cells at 10 nM measured after 48 hrs by Annexin V-FITC/PI assay (reference value: 2.31%)
[11] = system: HCT-116; assay: Cell cycle arrest in human HCT-116 cells assessed as accumulation of cells at G0-G1 phase at 10 nM measured after 48 hrs by flow cytometry (reference value: 62.18%)

GI50 [3]: 6 nM
GI50 [4]: 8 nM
GI50 [6]: 12 nM
GI50 [9]: 9 nM
Structure (SMILES): CCc1cnn2c(NCc3ccc[n+]([O-])c3)cc(N3CCCC[C@H]3CCO)nc12 [DINACICLIB]
Activity [1]: 44.93%
viability at 0.01 µM [2]: 55.3%
Activity [5]: 10.05%
Activity [7]: ~10.4%
Activity [8]: 33.2%
Activity [10]: 1.14%
Activity [11]: 45.02%
